Reference: patent US7250489B2, “Purified linear polypeptide epitope from walnuts and associated methods” (priority 2001, dated 2007)
No end group written: not given here.

Columns and labels:
Design in all cases: species or system human
[1] = tested on: IgE of walnut-allergic patients' sera; test: IgE binding to solid phase synthetic peptides (SPOTs analysis); conditions: for number of patients' sera positive for the peptide: 20 individual patients' sera
Description: The study was approved by the Human Subjects Review Committee at the University of California, Davis. Sera from 20 walnut-allergic patients with a convincing history of life-threatening systemic allergic reactions to walnuts, positive ImmunoCAP assays (Pharmacia, Inc., Diagnostics, Columbus, Ohio), and evidence of IgE against rJug r 1 (see below) were used in this study. Control sera were obtained from atopic patients with no history of walnut sensitivity, and one patient with life-threatening reactions to walnuts, positive ImmunoCAP assay, positive serum IgE immunoblot to walnut proteins, but negative for binding to the 2S albumin.
Based on the published amino acid sequence of Jug r 1 and our unpublished data determining the subunit cleavage sites,^6 twenty-five 13-amino acid peptides, offset by three amino acids, were synthesized which corresponded to the entire 64-amino acid length of the large subunit (FIG. 1A) and 26-amino acid length of the small subunit (FIG. 1B). Additional peptides bearing the target epitope (QGLRGEEMEEMV), SEQ ID NO:1, mutated forms of this peptide, and a non-IgE binding peptide (LSQRGLQSSSV), SEQ ID NO:6, were also synthesized. […] versions of the target peptide were created via a single site alanine substitution at each position along the amino acid sequence, and six mutated peptides were synthesized using multiple alanine substitutions, as shown in FIG. 6.
Peptides were synthesized on derivatized cellulose sheets using 9-fluorenlymethoxy carbonyl-derived (Fmoc) amino acids as described by the manufacturer (Genosys Biotechnologies, Inc., The Woodlands, Tex.). Briefly, cellulose membranes containing free hydroxy groups were esterfied with an Fmoc-amino acid dissolved in 1-methyl-2 pyrrolidione. The coupling reaction was followed by washing in N,N-dimethylformamide (DMF) and the amino acids were acetylated with acetic anhydride. The membranes were deprotected by washing in DMF and incubation with a solution of 20% piperidine in DMF followed by another wash in DMF. Coupling, acetylation, and deprotection steps were repeated for each cycle. During the final cycle, a mixture of dichloromethane, trifluoroacetic acid, and triisobutylsilane (1:1:0.05) was used to deprotect the acid-labile amino acid side chains.
(§1) The peptide-containing membranes were washed in TBS and incubated o/n at RT in blocking solution as directed by the manufacturer (Genosys Biotechnologies, Inc., The Woodlands, Tex.). Membranes were then washed in TBS-T for 10 min and incubated o/n at 4° C. with individual patient's serum or pooled patients' sera diluted 1:5 in blocking buffer (total sera:blocking buffer). This incubation was followed by three 5-min washes in TBS-T and an o/n (4° C.) incubation with ^125I-anti-human IgE (Hycor Biomedical Inc., Garden Grove, Calif.) diluted 1:10 in a mixture of PBS, 5% nonfat dry milk, and 0.05% Tween-20. Three final 10 min washes in PBS/0.05% Tween-20 were performed and IgE-peptide reactivity identified after a 48 hr exposure at −70° C. to Kodak Biomax x-ray film.

[2] = tested on: E1-specific IgE of patients' sera; test: Inhibition by soluble epitope peptide of IgE binding to solid-phase E1 peptide
Procedure: as §1
A soluble form of an identified IgE-reactive peptide is (QGLRGEEMEEMV) was synthesized by Fmoc protocols on an automated peptide synthesizer (Model 433A, Applied Biosystems, Foster City, Calif.).
(§2) To test the specificity and reactivity of the epitope-specific IgE, control, pooled and fractionated patients' sera were pre-incubated o/n at 4° C. with different amounts (70, 7.0, and 0.7 μg) of the soluble epitope peptide, or a soluble non-specific peptide. […] Detection of IgE binding to the solid-phase synthetic peptides and dot-blotted rJug r 1 was detected using ^125I-anti-human IgE and ECL+, respectively, as described earlier.

[3] = tested on: patient serum IgE binding to rJug r 1; test: Inhibition by soluble epitope peptide of IgE binding to dot-blotted rJug r 1
Procedure: For dot-blot assays, a graphite pencil was used to circumscribe 4 mm×8 mm elipses on a dry 0.4 μm NC membrane (Shleicher & Schuell; Keen, N.H.). The NC was incubated in distilled-deionized water (ddH2O) on a rocking table for 5 min and allowed to air dry before each dot was loaded with 0.11 μg of rJug r 1 in 2 μl of ddH2O. The antigen-loaded NC was then rinsed in ddH2O as described above, placed protein side up on 3MM paper (Whatman Intl. Ltd., Maidstone, England), and dried under a 60-watt light until all moisture was removed. […]
as §2

[4] = of the 20 patients tested, FIG. 4

Sequence | number of patients' sera positive for the peptide [1] | inhibition of binding of E1-specific IgE to the solid phase epitope ([2]; 70 μg soluble peptide) | inhibition of IgE binding to solid-phase E1 peptide ([2]; 70, 7.0, 0.7 μg peptide pre-incubated with whole patients' sera, FIG. 5C) | inhibition of IgE binding to rJug r 1, eluate (E1 epitope-specific) IgE fractions ([3]; 70 μg soluble peptide, affinity column purified IgE fractions) | inhibition of binding of IgE to the intact rJug r 1 ([3]; patients' IgE, soluble peptide) | number of patients exhibiting moderate recognition of the epitope peptide [1, 4] | number of patients exhibiting strong recognition of the epitope peptide [1, 4] | number of patients exhibiting weak recognition of the epitope peptide [1, 4] | number of patients showing no recognition of the epitope peptide [1, 4]
LSQRSQQQCRQ [(−) peptide, reference compound] | none |  |  |  |  |  |  |  | 
QGLRGEEMEEMV (not fully specified; listed as Juglans regia) [E1, solid-phase and soluble forms] | 15 | completely inhibit | Partial to complete inhibition | Inhibition was again observed | did not completely inhibit | six | five | four | five
